Measurements from patent publication US5162328A, “N-[3-[2-(1H-imidazol-1-yl)ethoxy]phenyl]-4-(2-thienyl)-2-pyrimidinamine and pharmacologically acceptable salts” (American Cyanamid Company, priority 1991, dated 1992).
Where “and” joins values, the source holds several entries; their conditions need not be identical. Identical values can stand only once.

Tests used:
[1] = test system: immunologically stimulated human basophils; test: Inhibition of histamine release from immunologically stimulated human basophils; assay type: cell-based; conditions: for IC50: Homo sapiens
From the text: The bronchospasm of allergic asthma is a consequence of the release of mediators, such as histamine and slow-reacting substances from mast cells. The role of mediator release in the induction of an asthmatic attack has been fully reviewed and documented; see […]. and Austen, K. F., Bronchial Asthma Mechanisms and Therapeutics, E. B. Weiss, Editor, Little, Brown and Company, Boston, 163, (1976); Lichtenstein, L. M., Asthma-Physiology, Immunopharmacology and Treatment, Second International Symposium, L. M. Lichtenstein and K. F. Austen, Editors, Academic Press, New York, 51, (1979); and Bell, S. C., et al., Annular Reports in Medicinal Chemistry, 14, 51, H. J. Hess, Editor, Academic Press, New York, (1979). The novel compounds of this invention have been tested by the procedure of Lichtenstein, L. M. and Osler, A. G., J. Exp. […] Dissolve 140.3 g of sodium chloride, 7.45 g of Trizma-Tris Pre-Set, Reagent Grade, pH 7.6 at 25° C. (Sigma Chemical Co.) in sufficient water to give a final volume of 2 liters. (Sigma chemical Co.) (30 mg/ml) Made to 0.075M and 0.5M respectively, with calcium chloride dihydrate and magnesium chloride hexahydrate. A 10 ml portion of 10× Tris Buffer and 1.0 ml of human albumin are diluted to 100 ml with water. A 10 ml portion of 10× Tris Buffer, 1.0 ml of human albumin, 0.8 ml of calcium stock and 0.2 ml of magnesium stock are diluted to 100 ml with water. Behring Diagnostics (Generally used at 10 μg protein/ml final concentration). Strength 1:100 (w:v) allergenic extract, Hollister-Stier Labs. Generally this is diluted 1:1000 to 1:10,000 (considering the vial as stock). Interdermal solutions or intramuscular preparations for hyposensitization, Hollister-Stier Labs. The final concentrations used are on the order of 1 PNU/ml. Using four 20 ml heparinized tubes, […] of blood are withdrawn from subjects with known histamine release to anti-IgE, ragweed antigen or other specific allergen. These 80 ml of blood are mixed with 20 ml of saline containing 0.6 g of dextrose and 1.2 g of dextran. The blood is allowed to sediment at room temperature in two 50 ml polycarbonate centrifuge tubes until a sharp interface develops between the red cells and plasma (60-90 minutes). The plasma, containing the leukocytes, (top) layer from each tube, is withdrawn by pipet and transferred to 50 ml polycarbonate tubes. The plasma is centrifuged for 8 minutes at 110× G at 4° C. The supernatant is carefully poured off as completely as possible and the cell button is resuspended in 2-3 ml of Tris-A buffer using a siliconized Pasteur pipet. The resuspension is accomplished by drawing the liquid gently in an out of the pipet, with the tip below the liquid until an even suspension of cells is obtained. […]

[2] = test system: passive cutaneous anaphylaxis lesions in the rat; test: Rat Passive Cutaneous Anaphylaxis Assay (PCA); assay type: in vivo, rat (male Wistar strain); conditions: for Lesion Area (Low IgE) / Lesion Area (High IgE): mean ± SD
Experimental: Solutions made by dissolving 0.50 g in 100 ml of normal saline. Mouse monoclonal IgE (ICN Biochemicals) clone SPE-7 directed against DNP is subdivided into 50 ul aliquots and stored at -70° C. DNP-ovalbumin is made by reacting DNP sulfonic acid with ovalbumin dissolved in saline overnight at room temperature. The resulting solution is dialyzed extensively at 4 C to remove unreacted DNPsulfonic acid and stored as 1 mL aliquots of 100 mg/ml at -70° C. Male Wistar strain rats, certified viral free, weighing 250-300 g are obtained from Hilltop Laboratory Animals and housed, in accordance with AALAC standards, on site for at least one week before use. Forty-eight hours before challenge the rats are shaved on the dorsal surfaces and returned to the cages. Twenty-four hours before challenge the rats are given intradermal injections of 0.1 mL, one on each flank, of saline containing IgE at concentrations ranging from 1000 to 250 ng/mL. These injections give a local dose of 100 to 25 ng IgE. The IgE binds to specific receptors on mast cells in the skin. […] To the Evan's blue dye is added sufficient DNP-ovalbumin to make a 1 mg/ml solution. This allergen containing dye is injected intravenously via a tail vein into the rats at 10 ml/Kg. The Evans' blue binds to plasma albumin and remains in the vascular space under conditions of normal capillary permeability. The allergen, which can diffuse into the extravascular space, binds to the IgE on the surface of the cutaneous mast cells and initiates the immediate hypersensitivity response which leads to the release of histamine by intracellular granules of the mast cell. The histamine causes an increase in capillary permeability which allows plasma proteins including the dye tagged albumin to diffuse into the extracellular space resulting in a blue spot in the skin. The size of the lesion is proportional to the amounts of mediators released. This process reaches an optimum in 30 minutes. Thirty minutes after challenge the rats are euthanized by CO2. The skin is reflected from the back and the lesion areas estimated as the product of the largest diameter of the bluespot and the diameter perpendicular to it. A compound which is a mediator release inhibitor will reduce the spot area. The effectiveness of the compounds is determined by Analysis of Variance of the lesion areas grouped by IgE dose and compound. Compounds are considered active at the P<0.05 level. Table II contains the results of the experiments expressed as the areas of the lesions in mm^2. The control lesions for these experiments are also listed. Because more than one compound at a time is tested, some of the control values are repeated in the table. Table III contains the data expressed as a % of the appropriate control.

[3] = 0.5 mg/kg PO 2 hrs, IgE 50 ng/site
[4] = compared with the two compounds of U.S. Pat. No. 4,788,195

Compound	IC50 [1] [µM]	Lesion Area (Low IgE) ([2]; 0.5 mg/kg PO 2 hrs, IgE 25 ng/site, dihydrochloride)	Lesion Area (High IgE) [2, 3] [mm^2]	Lesion Area (High IgE) ([2]; 0.5 mg/kg PO 2 hrs, IgE 100 ng/site, dihydrochloride)	% CONTROL (lesion area) ([2]; 0.5 mg/kg PO @ 2 hrs, dihydrochloride)	Lesion Area (Low IgE) ([2]; 1.0 mg/kg PO 2 hrs, IgE 25 ng/site) [mm^2]	Lesion Area (High IgE) ([2]; 1.0 mg/kg PO 2 hrs, IgE 50 ng/site) [mm^2]	% CONTROL (lesion area) ([2]; 1 mg/kg PO @ 2 hrs) [%]	Lesion Area (Low IgE) ([2]; 0.25 mg/kg PO 2 hrs, IgE 33 ng/site) [mm^2]	Lesion Area (High IgE) ([2]; 0.25 mg/kg PO 2 hrs, IgE 50 ng/site) [mm^2]	% CONTROL (lesion area) ([2]; 0.25 mg/kg PO @ 2 hrs) [%]	Lesion Area (Low IgE) ([2]; 0.5 mg/kg PO 2 hrs, IgE 33 ng/site) [mm^2]	% CONTROL (lesion area) ([2]; 0.5 mg/kg PO @ 2 hrs) [%]	Lesion Area (Low IgE) ([2]; 2.5 mg/kg PO 2 hrs, IgE 25 ng/site) [mm^2]	Lesion Area (High IgE) ([2]; 2.5 mg/kg PO 2 hrs, IgE 100 ng/site) [mm^2]	% CONTROL (lesion area) ([2]; 2.5 mg/kg PO @ 2 hrs) [%]	activity in basophil histamine release assay (in words) [1, 4]	activity in rat PCA test (in words) [2, 4]
Cc1cc(Nc2nccc(-c3ccncc3)n2)ccc1N.Cl.Cl [Compound 2, 2-methyl-N^4-[4-(4-pyridinyl)-2-pyrimidinyl]-1,4-benzenediamine dihydrochloride, reference compound]	0.9	135 ± 20 mm^2 and 97 ± 7 mm^2 and 105 ± 12 mm^2	157 ± 15	217 ± 35 mm^2 and 362 ± 62 mm^2	113.6% and 74.6% and 81%	10 ± 15	123 ± 16	57.9	–	–	–	–	–	–	–	–	–	–
CCN(CC)CCOc1ccc(Nc2nccc(-c3ccncc3)n2)cc1.Cl.Cl [Compound 3, N-[4-[2-(diethylamino)ethoxy]phenyl]-4-(4-pyridinyl)-2-pyrimidinamine dihydrochloride, reference compound]	0.2 ± 0.02	–	149 ± 22	–	–	–	–	–	108 ± 26	215 ± 24	45.1	68 ± 44	28.6	54 ± 38	105 ± 47	33.7	–	–
c1cc(Nc2nccc(-c3cccs3)n2)cc(OCCn2ccnc2)c1 [N-[3-[2-(1H-imidazol-1-yl)ethoxy]phenyl]-4-(2-thienyl)-2-pyrimidinamine]	–	–	–	–	–	–	–	–	–	–	–	–	–	–	–	–	essentially equivalent high activity	essentially equivalent high activity
